Data from patent US20250170090A1, “METHOD FOR PREVENTING OR TREATING DISEASE OR DISORDER ASSOCIATED WITH ANTINEOPLASTIC AGENT” (ONQUALITY PHARMACEUTICALS CHINA LTD., priority 2022, published 2025).

What was measured:
[1] = tested on: human intestinal epithelial cells (FHs 74 Int); test: CCK-8 cell viability: alleviation of proliferative toxicity of anti-tumor agents on FHs 74 Int (Table 8-4); type: cell-based; conditions: NO-NSAID 100 μM
Method: (§1) Experiments were conducted using various epithelial cells: Examples 47-51 used human immortalized keratinocytes (HaCaT) with corresponding results in Table 8-1; Examples 52-56 used human oral keratinocytes (HOK) with results in Table 8-2; Examples 57-61 used gastric epithelial cells (GES-1) with results in Table 8-3; Examples 62-66 used human intestinal epithelial cells (FHs 74 Int) with results in Table 8-4.
(§2) The cultured cells were digested the suspended, counted, and seed into a 96-well plate with 5,000-10,000 cells per well. The wells are divided into the following groups: blank control group, anti-tumor agent group, anti-tumor agent+NO-NSAID group, anti-tumor agent solvent group, NO-NSAID solvent control group. Wherein each well of each group contained a basic medium, and the final liquid volume contained in each well was about 100 μL. The grouping situation was as follows: • 1) Blank control group: no solution was added except normally replacing the medium; • 2) Anti-tumor agent group: added the anti-tumor agent solution (the final concentration was shown in Table 8-1 to Table 8-4, the solvent of the anti-tumor agent solution was DMSO); • 3) Anti-tumor agent+NO-NSAID group: added the anti-tumor agent solution and the NO-NSAID solution (the final concentrations of anti-tumor agent and NO-NSAID were shown in Table 8-1 to Table 8-4, and according to the solubility of NO-NSAID, the solvent of NO-NSAID solution was selected as ethanol or sterile water, and minor volume differences in each group were adjusted by added the corresponding solvent); • 4) Anti-tumor agent solvent group: an equal volume of DMSO as contained in the corresponding anti-tumor agent solution in Group 2) was added; • 5) NO-NSAID control group: the same volume and type of solvent (for example, ethanol or sterile water) corresponding to the NO-NSAID contained in group 3) was added.
(§3) The anti-tumor agent solvent group was not involved in data processing and was only used as a reference for evaluating experimental system error. The NO-NSAID solvent control group was used for data correction to eliminate the influence of the solvent on the results.
(§4) After culturing for 24-48 hours, the Cell Counting Kit-8 (CCK-8) detection kit (C0037, Shanghai Beyotime Biotechnology Co., Ltd., Beyotime Biotechnology) was used to determine the cell viability. This allows for the calculation of the proliferative toxicity of anti-tumor agent on cell and the mitigating effect of NO-NSAID on proliferative toxicity. The results were statistically analyzed and plotted using GraphPad Prism 6.0 software and t test.

[2] = tested on: gastric epithelial cells (GES-1); test: CCK-8 cell viability: alleviation of proliferative toxicity of anti-tumor agents on GES-1 (Table 8-3); type: cell-based, human; conditions: NO-NSAID 100 μM
Method: as §1, §2, §3, §4

[3] = tested on: human oral keratinocytes (HOK); test: CCK-8 cell viability: alleviation of proliferative toxicity of anti-tumor agents on HOK (Table 8-2); type: cell-based; conditions: NO-NSAID 100 μM
Method: as §1, §2, §3, §4

[4] = tested on: human immortalized keratinocytes (HaCaT); test: CCK-8 cell viability: alleviation of proliferative toxicity of anti-tumor agents on HaCaT (Table 8-1); type: cell-based; conditions: NO-NSAID 100 μM, percentage increase in viable cells vs anti-tumor agent alone
Method: as §1, §2, §3, §4

[5] = tested on: chemotherapy-induced hand-foot syndrome; test: Prevention of chemotherapy-induced hand-foot syndrome in rat models (Table 5); type: in vivo, SD rats
Method: Rat animal model was constructed. After several days, the rats develop hand-foot syndrome in their paws. After one week of acclimatization (about 200 g), the SD rats are divided into groups of 10 rats each, followed by gavage administration experiment. The chemotherapy drugs were dissolved, and each rat was given a gavage dose of 1 mL/100 g. After gavage, the rats were fixed with a fixed cylinder. NO-NSAID ointment was applied to the paws of the rats in the medication group, and blank ointment was applied to the paws of the rats in the blank group (as blank control). […] Table 5 lists the animal experimental combinations of chemotherapy drugs and NO-NSAID ointment, as well as the corresponding experimental results (where the value in the control rate column=the incidence rate of hand-foot syndrome in the blank group−the incidence rate of hand-foot syndrome in the treatment group).

[6] = tested on: hand-foot syndrome caused by anti-tumor agents; test: Treatment of established hand-foot syndrome caused by anti-tumor agents in rats (Table 4); type: in vivo
Method: After the rats (about 200 g) were fed and adapted for one week, the rats were divided into groups of 10 rats for gavage administration experiment. The anti-tumor agent was dissolved in a mixed solution of Cremophor EL:ethanol=1:1, and diluted with PBS to the required concentration (diluted about 3 times with PBS solution) before gavage. […] Specific experimental procedures followed those outlined in the prevention experiment. […] Table 4 lists the animal experiments using various anti-tumor agents and NO-NSAID ointment, as well as the corresponding experimental results (where the value in the control rate column=the incidence rate of hand-foot syndrome in the blank group−the incidence rate of hand-foot syndrome in the treatment group).

[7] = Capecitabine 4000 mg/kg once a day, ointment 2% wt, Days 40

CC(C(=O)OCCCO[N+](=O)[O-])c1ccc(-c2ccccc2)c(F)c1 (centres unmarked) [Compound A1]
Response rate % (average) ([1]; Afatinib (10 μM)): 39%
Response rate % (average) ([1]; Cabozantinib (5 μM)): 27%
Response rate % (average) ([1]; Dabrafenib (10 μM)): −9%
Response rate % (average) ([1]; Everolimus (5 μM)): 19%
Response rate % (average) ([1]; Infigratinib (15 μM)): 0%
Response rate % (average) ([1]; Lapatinib (5 μM)): 35%
Response rate % (average) ([1]; Lenvatinib (10 μM)): 43%
Response rate % (average) ([1]; Olmutinib (10 μM)): 34%
Response rate % (average) ([1]; Regorafenib (5 μM)): 37%
Response rate % (average) ([1]; Selumetinib (5 μM)): 29%
Response rate % (average) ([1]; Sorafenib (5 μM)): 17%
Response rate % (average) ([1]; Sunitinib (5 μM)): 21%
Response rate % (average) ([2]; Afatinib (10 μM)): 24%
Response rate % (average) ([2]; Cabozantinib (5 μM)): 28%
Response rate % (average) ([2]; Dabrafenib (10 μM)): 6%
Response rate % (average) ([2]; Everolimus (5 μM)): 24%
Response rate % (average) ([2]; Infigratinib (15 μM)): 23%
Response rate % (average) ([2]; Lapatinib (5 μM)): 31%
Response rate % (average) ([2]; Lenvatinib (10 μM)): 41%
Response rate % (average) ([2]; Olmutinib (10 μM)): 38%
Response rate % (average) ([2]; Regorafenib (5 μM)): 34%
Response rate % (average) ([2]; Selumetinib (5 μM)): 18%
Response rate % (average) ([2]; Sorafenib (5 μM)): 15%
Response rate % (average) ([2]; Sunitinib (5 μM)): −2%
Response rate % (average) ([3]; Afatinib (10 μM)): 41%
Response rate % (average) ([3]; Cabozantinib (5 μM)): 23%
Response rate % (average) ([3]; Dabrafenib (10 μM)): 2%
Response rate % (average) ([3]; Everolimus (5 μM)): −2%
Response rate % (average) ([3]; Infigratinib (15 μM)): 1%
Response rate % (average) ([3]; Lapatinib (5 μM)): 12%
Response rate % (average) ([3]; Lenvatinib (10 μM)): 38%
Response rate % (average) ([3]; Olmutinib (10 μM)): 40%
Response rate % (average) ([3]; Regorafenib (5 μM)): 22%
Response rate % (average) ([3]; Selumetinib (5 μM)): 15%
Response rate % (average) ([3]; Sorafenib (5 μM)): 22%
Response rate % (average) ([3]; Sunitinib (5 μM)): 9%
Response rate % (average) ([4]; Afatinib (10 μM)): 38%
Response rate % (average) ([4]; Cabozantinib (5 μM)): 36%
Response rate % (average) ([4]; Dabrafenib (10 μM)): 2%
Response rate % (average) ([4]; Everolimus (5 μM)): −3%
Response rate % (average) ([4]; Infigratinib (15 μM)): −6%
Response rate % (average) ([4]; Lapatinib (5 μM)): 33%
Response rate % (average) ([4]; Lenvatinib (10 μM)): 24%
Response rate % (average) ([4]; Olmutinib (10 μM)): 42%
Response rate % (average) ([4]; Regorafenib (5 μM)): 41%
Response rate % (average) ([4]; Selumetinib (5 μM)): 19%
Response rate % (average) ([4]; Sorafenib (5 μM)): 25%
Response rate % (average) ([4]; Sunitinib (5 μM)): 15%
Control rate ([5]; Capecitabine 4000 mg/kg once a day, ointment 1% wt, Days 40): 37.50%
Control rate ([5]; Capecitabine 4000 mg/kg once a day, ointment 3% wt, Days 40): 44.44%
Control rate ([5]; Doxorubicin 7 mg/kg once every three days, ointment 1% wt, Days 30): 50.00%
Response rate ([6]; Apatinib 105 mg/kg once every two days, ointment 2.50% wt, Days 7): 28.57%
Response rate ([6]; Cabozantinib 50 mg/kg once every two days, ointment 1% wt, Days 11): 28.57%
Response rate ([6]; Encorafenib 80 mg/kg once every two days, ointment 2.50% wt, Days 9): 14.29%
Response rate ([6]; Fruquintinib 40 mg/kg once every two days, ointment 2.50% wt, Days 8): 42.86%
Response rate ([6]; Lenvatinib 65 mg/kg once a day, ointment 2.50% wt, Days 9): 40.00%
Response rate ([6]; Olmutinib 100 mg/kg once every two days, ointment 2.50% wt, Days 12): 42.86%
Response rate ([6]; Regorafenib 90 mg/kg once every two days, ointment 0.50% wt, Days 8): 14.29%
Response rate ([6]; Sorafenib 80 mg/kg once every two days, ointment 2.50% wt, Days 5): 28.57%
Response rate ([6]; Sunitinib 120 mg/kg once every two days, ointment 2.50% wt, Days 9): 28.57%

CC(=O)Oc1ccccc1C(=O)OCc1no[n+]([O-])c1C(N)=O [Compound A6]
Control rate [5, 7]: 42.86%
Response rate ([6]; Encorafenib 80 mg/kg once every two days, ointment 1% wt, Days 7): 16.67%

CC(C)Cc1ccc(C(C)C(=O)OCO/N=[N+](\[O-])N(C)C)cc1 (centres unmarked) [Compound A4]
Response rate % (average) ([1]; Afatinib (10 μM)): 33%
Response rate % (average) ([1]; Cabozantinib (5 μM)): 28%
Response rate % (average) ([1]; Dabrafenib (10 μM)): −9%
Response rate % (average) ([1]; Everolimus (5 μM)): 18%
Response rate % (average) ([1]; Infigratinib (15 μM)): 17%
Response rate % (average) ([1]; Lapatinib (5 μM)): 26%
Response rate % (average) ([1]; Lenvatinib (10 μM)): 38%
Response rate % (average) ([1]; Olmutinib (10 μM)): 16%
Response rate % (average) ([1]; Regorafenib (5 μM)): 31%
Response rate % (average) ([1]; Selumetinib (5 μM)): 14%
Response rate % (average) ([1]; Sorafenib (5 μM)): 24%
Response rate % (average) ([1]; Sunitinib (5 μM)): 23%
Response rate % (average) ([2]; Afatinib (10 μM)): 16%
Response rate % (average) ([2]; Cabozantinib (5 μM)): 29%
Response rate % (average) ([2]; Dabrafenib (10 μM)): 6%
Response rate % (average) ([2]; Everolimus (5 μM)): 23%
Response rate % (average) ([2]; Infigratinib (15 μM)): 36%
Response rate % (average) ([2]; Lapatinib (5 μM)): 22%
Response rate % (average) ([2]; Lenvatinib (10 μM)): 36%
Response rate % (average) ([2]; Olmutinib (10 μM)): 21%
Response rate % (average) ([2]; Regorafenib (5 μM)): 29%
Response rate % (average) ([2]; Selumetinib (5 μM)): 2%
Response rate % (average) ([2]; Sorafenib (5 μM)): 22%
Response rate % (average) ([2]; Sunitinib (5 μM)): 0%
Response rate % (average) ([3]; Afatinib (10 μM)): 34%
Response rate % (average) ([3]; Cabozantinib (5 μM)): 24%
Response rate % (average) ([3]; Dabrafenib (10 μM)): 2%
Response rate % (average) ([3]; Everolimus (5 μM)): −3%
Response rate % (average) ([3]; Infigratinib (15 μM)): 18%
Response rate % (average) ([3]; Lapatinib (5 μM)): 0%
Response rate % (average) ([3]; Lenvatinib (10 μM)): 33%
Response rate % (average) ([3]; Olmutinib (10 μM)): 24%
Response rate % (average) ([3]; Regorafenib (5 μM)): 15%
Response rate % (average) ([3]; Selumetinib (5 μM)): −2%
Response rate % (average) ([3]; Sorafenib (5 μM)): 29%
Response rate % (average) ([3]; Sunitinib (5 μM)): 11%
Response rate % (average) ([4]; Afatinib (10 μM)): 31%
Response rate % (average) ([4]; Cabozantinib (5 μM)): 37%
Response rate % (average) ([4]; Dabrafenib (10 μM)): 1%
Response rate % (average) ([4]; Everolimus (5 μM)): −4%
Response rate % (average) ([4]; Infigratinib (15 μM)): 12%
Response rate % (average) ([4]; Lapatinib (5 μM)): 25%
Response rate % (average) ([4]; Lenvatinib (10 μM)): 17%
Response rate % (average) ([4]; Olmutinib (10 μM)): 26%
Response rate % (average) ([4]; Regorafenib (5 μM)): 36%
Response rate % (average) ([4]; Selumetinib (5 μM)): 3%
Response rate % (average) ([4]; Sorafenib (5 μM)): 32%
Response rate % (average) ([4]; Sunitinib (5 μM)): 16%
Control rate ([5]; Capecitabine 4000 mg/kg once a day, ointment 0.50% wt, Days 40): 25.00%
Control rate [5, 7]: 57.14%
Control rate ([5]; Cytarabine 120 mg/kg twice a day, ointment 0.50% wt, Days 30): 28.57%
